Results as given in patent US12605358B2, “Composition for preventing or treating nervous system diseases comprising compound that inhibits mTOR signaling pathway as active ingredient” (ALIAD BIOPHARMA, priority 2021, dated 2026).

Columns and labels:
[1] = system: primary cultured cerebral neurons; assay: Aβ accumulation (6E10) and LC3 double staining; assay type: cell-based, rat; conditions: Aβ 0.5 or 1 μM, HN-1703 0.1 or 0.5 μM, 12 or 24 hours, FIG. 4
Description: Primary neurons culture was performed from the cerebral cortex of E16 embryos on embryonic day 16 of […] (SD, Orient Bio). Primary neurons culture (cortical neurons culture) was performed from the cerebral cortex of rat (SD, Orient Bio) embryonic 16-day (E16) embryos. The left and right hemispheres of the extracted brain were separated using sterile tweezers under a dissecting microscope, the meninges were peeled off, and then the cerebral cortex region was cut with No. 5 tweezers and collected in a Ca^2+/Mg^2+-free HBSS (Invitrogen), and mixed with an equal amount of 0.25% trypsin in a 15 ml tube and treated in a 37° C. water bath for 10 to 15 minutes. Thereafter, trypsin was inactivated by removing a portion of trypsin, leaving 1 to 2 ml of trypsin, and then adding the same amount of 20% FBS-DMEM. […]
As confirmed in Experimental Example 2 that HN-1703 may effectively promote autophagy, it was evaluated whether HN-1703 may remove Aβ oligomers accumulated in cells. In the rat embryonic (E16) cerebral cortex region, primary cultured cerebral neurons were treated with […] or 1 μM Aβ and 0.1 μM or 0.5 μM HN-1703 for 12 or 24 hours, and accumulated Aβ was stained with a 6E10 antibody and autophagy formation was simultaneously double-stained with an LC3 antibody and measured, and cell nuclei were labeled with DAPI. […]

5xFAD transgenic mice = assay: Neurogenesis (Sox2/DCX/NeuN staining); assay type: in vivo; conditions: 10 to 20 mg/kg; compared to the WT normal group; FIG. 17
Description: 5xFAD animals were administered with HN-1703 at three doses for 14 days to male heterozygotes aged 6 months (all born within 3 days). The behaviors of mice were measured in a dark cycle in which the mice were active while alternating light and dark in a 12-hour cycle in a breeding room chamber, and the mice were freely accessible to food and water and bred in compliance with experimental animal ethical guidelines of Kyung Hee University. In each group, the HN-1703 was intraperitoneally injected at the same time once a day in a volume of 100 μl to 12 mice in a normal group (wild type littermate), 9 5xFAD mice in a vehicle (DMSO administration), 8 5xFAD mice in a 5 mg/kg administered group, 9 5xFAD mice in a 10 mg/kg administered group, and 9 5xFAD mice in a 20 mg/kg administered group. […] Behavioral measures were measured in Y-maze, Morris Water Maze, and Passive Avoidance test for 18 days in sequence. […]
FIG. 17 illustrates confocal scanning micrographs of a subgranular zone region of the hippocampal dentate gyrus after triple staining with an NeuN antibody as a neuron marker, an Sox2 antibody as a type1 neural progenitor cell marker, and a DCX antibody as a differentiating and migrating type3 neural precursor cell marker, and quantifying the number of Sox2+/NeuN+ cells and the number of DCX+/NeuN+ cells.

For `COc1cc(OC)c2c(=O)c3cc4c(cc3oc2c1)OCO4` [HN-1703, 7,9-dimethoxy-10H-[1,3]dioxolo[4,5-b]xanthen-10-one], the “Aβ accumulated in cells removed” value [1] was at least 50%, the “increase of the area of LC3 puncta” value ([1]; concentration-dependent) was at least 4 times and the “DCX+ neural progenitor cells” value (5xFAD transgenic mice) was “twice or more”. For the same compound, the “Sox2+ neural progenitor cells” value (5xFAD transgenic mice) was “more Sox2+ neural progenitor cells were observed”.
